Laboratory results reported in patent publication US20220221458A1, “NOROVIRUS-BINDING PEPTIDE” (Kao Corporation, priority 2019, published 2022).
Ends that are not written are not given here.

B1: peptide of SEQ ID NO: 28, synthesized, with spacer sequence and biotin (peptide)
peptide: VMMQCP
modifications: also: spacer with Trp and biotin, letters and position not given here
B2: peptide of SEQ ID NO: 21, synthesized, with spacer sequence and biotin (peptide)
peptide: GKFFCH
modifications: also: spacer with Trp and biotin, letters and position not given here

Key:
GII.3 VLP = assay: Calculation of KD value by bio-layer interferometry (BLI method); type: binding, norovirus; conditions: BLItz, GII.3 VLP 1 and 0.1 mg/mL; for Kd: biotinylated peptide 100 μM on SA chip, calculated from ka and kd; for ka / kd: peptide 100 μM on SA chip
Method: <Calculation of KD Value by Bio-Layer Interferometry: BLI Method>
The apparatus used was BLItz™ (manufactured by ForteBio). The tip of SA chip (manufactured by ForteBio) was kept in contact with purified water for 1 minute for hydration and was then kept in contact with a 1% BSA aqueous solution for 1 hour for blocking. The SA chip subjected to blocking treatment was set to the measuring unit of the BLItz™ main body, and measurement was performed according to the program shown in Table 14. The peptides of SEQ ID NOs: 1, 21, and 28 were used, and the concentration was adjusted to 100 μM. The concentration of the GII.3 VLP was adjusted to 1 and 0.1 mg/mL. The measurement data were analyzed using the attached software, and the KD value was calculated based on the Ka and Kd values.

[1] = target: GII.3 VLP (norovirus GII.3 TCH strain); assay: BLI (BLItz), biotin peptide on SA chip, GII.3 VLP at 1 and 0.1 mg/mL

Row | Molecule | Kd (GII.3 VLP) [µM] | ka (GII.3 VLP) [M⁻¹ s⁻¹] | kd (GII.3 VLP) [s⁻¹] | Kd [1] [µM] | koff [1] [s⁻¹] | kon [1] [M⁻¹ s⁻¹]
1 | VMMQCP [SEQ ID NO: 28] | 218 | 230 | 0.05 |  |  | 
2 | GRRYYI [SEQ ID NO: 1] | 6.01 | 9070 | 0.0546 |  |  | 
3 | GKFFCH [SEQ ID NO: 21] | 107 | 358 | 0.0382 |  |  | 
4 | B1 |  |  |  | 218 | 0.05 | 230
5 | B2 |  |  |  | 107 | 0.0382 | 358
